Where “and” joins values, the source holds several entries; their conditions need not be identical. Identical values can stand only once. Toxic doses and inconclusive results are not listed. No stated cut-off is given here; in the data, active means T/C of 150% or more; inactive means T/C below 125%.
Test system: L1210 leukemia ip in BDF1 mice, survival T/C
Assay: NCI In Vivo Anticancer Drug Screen. Data for tumor model L1210 Leukemia (intraperitoneal) in B6D2F1 (BDF1) mice
Details: endpoint: mean survival time, higher = longer survival
Method in brief: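 Ratio derived from survival: compound-dosed mice over vehicle-dosed mice, all bearing a transplantable tumor.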

[1] = dose: 100.0 mg/kg/injection, schedule: Q04DX003 (ip), vehicle: saline with Tween-80
[2] = dose: 200.0 mg/kg/injection, schedule: Q04DX003 (ip), vehicle: saline with Tween-80
[3] = dose: 100.0 mg/kg/injection, schedule: Q04DX002 (ip), vehicle: Klucel (hydroxypropylcellulose) (HPC)
[4] = dose: 200.0 mg/kg/injection, schedule: Q04DX002 (ip), vehicle: Klucel (hydroxypropylcellulose) (HPC)
[5] = dose: 100.0 mg/kg/injection, schedule: Q01DX001 (ip), vehicle: Klucel (hydroxypropylcellulose) (HPC)
[6] = dose: 100.0 mg/kg/injection, schedule: Q04DX003 (ip), vehicle: Klucel (hydroxypropylcellulose) (HPC)
[7] = dose: 200.0 mg/kg/injection, schedule: Q01DX001 (ip), vehicle: Klucel (hydroxypropylcellulose) (HPC)
[8] = dose: 200.0 mg/kg/injection, schedule: Q04DX003 (ip), vehicle: Klucel (hydroxypropylcellulose) (HPC)
[9] = dose: 400.0 mg/kg/injection, schedule: Q01DX001 (ip), vehicle: Klucel (hydroxypropylcellulose) (HPC)
[10] = dose: 400.0 mg/kg/injection, schedule: Q04DX003 (ip), vehicle: Klucel (hydroxypropylcellulose) (HPC)
[11] = dose: 400.0 mg/kg/injection, schedule: Q04DX003 (ip), vehicle: saline with Tween-80
[12] = dose: 100.0 mg/kg/injection, schedule: Q01DX001 (ip), vehicle: saline
[13] = dose: 200.0 mg/kg/injection, schedule: Q01DX001 (ip), vehicle: saline
[14] = dose: 400.0 mg/kg/injection, schedule: Q01DX001 (ip), vehicle: saline
[15] = dose: 100.0 mg/kg/injection, schedule: Q01DX009 (ip), vehicle: Klucel (hydroxypropylcellulose) (HPC)
[16] = dose: 200.0 mg/kg/injection, schedule: Q01DX009 (ip), vehicle: Klucel (hydroxypropylcellulose) (HPC)
[17] = dose: 400.0 mg/kg/injection, schedule: Q01DX009 (ip), vehicle: Klucel (hydroxypropylcellulose) (HPC)
[18] = dose: 400.0 mg/kg/injection, schedule: Q04DX002 (ip), vehicle: Klucel (hydroxypropylcellulose) (HPC)

Measured: T/C

CC(=O)OC1=C2C(C)(CCC(OC(C)=O)C2(C)C)C2=C(C1=O)C1(C)CCC(C(C)CCCC(C)C)C1(C)CC2=O (configuration not stated)
inactive: [1] 87 % of control | [2] 87 % of control

O=C(OCc1ccccc1CN1CCOCC1)c1cccc(Br)c1
inactive: dose: 25.0 mg/kg/injection, schedule: Q04DX002 (ip), vehicle: Klucel (hydroxypropylcellulose) (HPC) 93 % of control | dose: 50.0 mg/kg/injection, schedule: Q04DX002 (ip), vehicle: Klucel (hydroxypropylcellulose) (HPC) 95 % of control and 108 % of control | [3] 108 % of control | [4] 108 % of control and 92 % of control

c1ccc2c(OCC3=NCCN3)cccc2c1
inactive: dose: 20.0 mg/kg/injection, schedule: Q01DX001 (ip), vehicle: Klucel (hydroxypropylcellulose) (HPC) 104 % of control | dose: 25.0 mg/kg/injection, schedule: Q01DX009 (ip), vehicle: Klucel (hydroxypropylcellulose) (HPC) 105 % of control | dose: 40.0 mg/kg/injection, schedule: Q01DX001 (ip), vehicle: Klucel (hydroxypropylcellulose) (HPC) 104 % of control | dose: 50.0 mg/kg/injection, schedule: Q01DX009 (ip), vehicle: Klucel (hydroxypropylcellulose) (HPC) 106 % of control | dose: 80.0 mg/kg/injection, schedule: Q01DX001 (ip), vehicle: Klucel (hydroxypropylcellulose) (HPC) 102 % of control | [5] 109 % of control

CC(C(O)c1ccccc1)C(O)(C(F)(F)Cl)C(F)(F)Cl (configuration not stated)
inactive: [5] 102 % of control | [6] 98 % of control | [7] 102 % of control | [8] 88 % of control | [9] 107 % of control | [10] 114 % of control

COC1(OC)C2(Cl)C=C(c3ccccc3)C1(Cl)C(Cl)=C2Cl (configuration not stated)
inactive: dose: 100.0 mg/kg/injection, schedule: Q01DX001 (ip), vehicle: carboxymethylcellulose (CMC) 92 % of control | dose: 200.0 mg/kg/injection, schedule: Q01DX001 (ip), vehicle: carboxymethylcellulose (CMC) 97 % of control | dose: 400.0 mg/kg/injection, schedule: Q01DX001 (ip), vehicle: carboxymethylcellulose (CMC) 94 % of control

Cn1c(=O)c2c(ncn2CC(O)CO)n(C)c1=O (configuration not stated) (tested in a mixture with another compound)
inactive: [1] 101 % of control | [2] 98 % of control | [11] 95 % of control

[N-]=[N+]=C1C(c2ccccc2)=NC(c2nccc3ccccc23)=C1[N+](=O)[O-]
inactive: dose: 5.0 mg/kg/injection, schedule: Q01DX001 (ip), vehicle: saline 113 % of control | dose: 10.0 mg/kg/injection, schedule: Q01DX001 (ip), vehicle: saline 102 % of control | dose: 20.0 mg/kg/injection, schedule: Q01DX001 (ip), vehicle: saline 110 % of control

CC(=O)C(=O)O
inactive: [12] 110 % of control | [13] 95 % of control | [14] 87 % of control

CC1=C/C=C/C(C)C(O)C(C)C(O)C(C)C(O)C(C)C(O)C(C)CC=C(C)C(=O)c2c(O)c(C)cc3c2C(=O)C(C)=C(NC1=O)C3=O (configuration not stated)
inactive: [6] 103 % of control | [8] 100 % of control | [10] 101 % of control

[Se]=P(c1ccccc1)(c1ccccc1)c1ccccc1
inactive: [15] 103 % of control | [16] 90 % of control

COC(=O)C1OC1c1cc(Cl)cc(Cl)c1OC (configuration not stated)
inactive: [12] 100 % of control | [13] 106 % of control | [14] 101 % of control

c1ccc([Si]2(c3ccccc3)c3ccccc3-c3ccccc32)cc1
inactive: [1] 94 % of control | [2] 87 % of control | [11] 87 % of control

Nc1cccnc1NCC(O)c1ccccc1 (configuration not stated)
inactive: [12] 103 % of control | [13] 97 % of control

O=C1C(NC(=O)C(Cl)Cl)=C(N2CC2)C(=O)c2ccccc21
inactive: [6] 98 % of control | [8] 102 % of control | [10] 98 % of control

CC[n+]1cn(-c2ccc(S(=O)(=O)[O-])cc2)nn1
inactive: [12] 101 % of control | [13] 110 % of control

CC1(C)OC2COC3(COC(C)(C)O3)C(OS(C)(=O)=O)C2O1 (configuration not stated)
inactive: [1] 92 % of control | [2] 95 % of control | [11] 95 % of control

CN(C)S(=O)(=O)c1ccc(Nc2ccc(O)c3c2C(=O)c2c([N+](=O)[O-])ccc(O)c2C3=O)cc1
inactive: dose: 75.0 mg/kg/injection, schedule: Q01DX001 (ip), vehicle: steriod suspending solution 98 % of control | dose: 150.0 mg/kg/injection, schedule: Q01DX001 (ip), vehicle: steriod suspending solution 98 % of control | dose: 300.0 mg/kg/injection, schedule: Q01DX001 (ip), vehicle: steriod suspending solution 100 % of control

CC1=NOC(=O)C1C(C)(C)C1C(=O)ON=C1C (configuration not stated)
inactive: [1] 101 % of control | [2] 95 % of control | [11] 101 % of control

COc1ccccc1/C(=C/c1ccc([N+](=O)[O-])cc1)C(=O)O
inactive: [5] 100 % of control | [15] 97 % of control and 100 % of control | [3] 101 % of control and 107 % of control | [6] 97 % of control | [7] 94 % of control | [16] 95 % of control and 103 % of control | [4] 102 % of control and 103 % of control | [8] 100 % of control | [9] 94 % of control | [17] 100 % of control | [18] 97 % of control and 104 % of control | [10] 101 % of control

CS(=O)(=O)N(CC(=O)O)Cc1ccc(Cl)cc1
inactive: dose: 100.0 mg/kg/injection, schedule: Q04DX003 (ip), vehicle: other 102 % of control | dose: 200.0 mg/kg/injection, schedule: Q04DX003 (ip), vehicle: other 105 % of control | dose: 400.0 mg/kg/injection, schedule: Q04DX003 (ip), vehicle: other 98 % of control

COc1c(C)ccc([N+](=O)[O-])c1OC
inactive: [1] 94 % of control | [2] 97 % of control | [11] 97 % of control

NC(=S)N1CCOCC1
inactive: dose: 100.0 mg/kg/injection, schedule: Q04DX002 (ip), vehicle: saline 97 % of control | dose: 200.0 mg/kg/injection, schedule: Q04DX002 (ip), vehicle: saline 101 % of control | dose: 400.0 mg/kg/injection, schedule: Q04DX002 (ip), vehicle: saline 108 % of control

CCCCCCCCc1c(C)nc(N)[nH]c1=O
inactive: [3] 100 % of control | [4] 100 % of control | [18] 104 % of control

NCCP(=O)(O)c1ccccc1
inactive: [12] 94 % of control | [13] 93 % of control | [14] 93 % of control

CN(C)CCCn1c2nc(=O)[nH]c(=O)c-2nc2cc(Cl)c(Cl)cc21
inactive: dose: 4.0 mg/kg/injection, schedule: Q01DX Z (ip), vehicle: methylcellulose (MC) 117 % of control

O=[N+]([O-])c1ccc(NC(CO)C(O)C(O)C(O)CO)c([N+](=O)[O-])c1 (configuration not stated)
inactive: [12] 102 % of control | [13] 98 % of control | [14] 98 % of control

CN(C)c1ccc(C=C(C#N)C#N)cc1
inactive: [15] 100 % of control | [6] 96 % of control and 98 % of control | [16] 105 % of control | [8] 97 % of control and 102 % of control | [17] 94 % of control | [10] 93 % of control and 92 % of control

Cc1c2oc3c(C)ccc(C(=O)NCCN4CCN(c5ccccc5)CC4)c3nc-2c(C(=O)NCCN2CCN(c3ccccc3)CC2)c(N)c1=O
inactive: dose: 100.0 mg/kg/injection, schedule: Q04DX002 (ip), vehicle: saline with Tween-80 92 % of control | dose: 200.0 mg/kg/injection, schedule: Q04DX002 (ip), vehicle: saline with Tween-80 95 % of control | dose: 400.0 mg/kg/injection, schedule: Q04DX002 (ip), vehicle: saline with Tween-80 95 % of control

From PubChem BioAssay AID248 (DTP/NCI, 2004)
